In ChEMBL document CHEMBL1201862, “PubChem BioAssay data set” (2004):
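In this assay, cells in 96-well plates receive the compound at five concentrations for 48 hours. Endpoints are linearly interpolated between the surrounding concentrations. GI50 is the concentration that inhibits growth by half.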 Calls of active or inactive are those of the source. Rule as the data show it: active = GI50 up to about 1.1 µM and inactive = higher.

Columns and labels:
Assay in all cases: NCI anticancer screen, dose series, 48 h
HT-29 = test system: HT-29
Hs-578T = test system: Hs-578T
RPMI-8226 = test system: RPMI-8226
SK-MEL-5 = test system: SK-MEL-5
U-251 = test system: U-251
SK-MEL-2 = test system: SK-MEL-2
MCF7 = test system: MCF7
NCI/ADR-RES = test system: NCI/ADR-RES
786-0 = test system: 786-0
SW-620 = test system: SW-620
Malme-3M = test system: Malme-3M
MOLT-4 = test system: MOLT-4
BT-549 = test system: BT-549
KM12 = test system: KM12
SN12C = test system: SN12C
UACC-257 = test system: UACC-257
HCT-15 = test system: HCT-15
PC-3 = test system: PC-3
A549 = test system: A549
HCC 2998 = test system: HCC 2998

SMILES | GI50 (HT-29) | GI50 (Hs-578T) | GI50 (RPMI-8226) | GI50 (SK-MEL-5) | GI50 (U-251) | GI50 (SK-MEL-2) | GI50 (MCF7) | GI50 (NCI/ADR-RES) | GI50 (786-0) | GI50 (SW-620) | GI50 (Malme-3M) | GI50 (MOLT-4) | GI50 (BT-549) | GI50 (KM12) | GI50 (SN12C) | GI50 (UACC-257) | GI50 (HCT-15) [µM] | GI50 (PC-3) | GI50 (A549) | GI50 (HCC 2998)
COc1cc(-c2ccc(Nc3ccccc3C(=O)O)c(OC)c2)ccc1Nc1ccccc1C(=O)O | 31 µM (inactive) | 11.3 µM (inactive) | 2.33 µM (inactive) | 16.6 µM (inactive) | 3.3 µM (inactive) | 19.3 µM (inactive) | 5.08 µM (inactive) | > 46.2 µM (inactive) | 4.52 µM (inactive) | 7.38 µM (inactive) | 39.6 µM (inactive) | 1.13 µM (inactive) | 15.8 µM (inactive) | 7.53 µM (inactive) | 9.91 µM (inactive) | 20.5 µM (inactive) | 0.619 | 2 µM (inactive) | 4.22 µM (inactive) | 21.7 µM (inactive)
CC[C@@]1(O)C(=O)OCc2c1c(Cl)c1n(c2=O)Cc2cc3ccccc3nc2-1 | 2.18 µM (inactive) | 31.4 µM (inactive) | 1.73 µM (inactive) | 1.75 µM (inactive) | 1.07 µM (active) | 12.3 µM (inactive) | 0.708 µM (active) | 1.8 µM (inactive) | 1.22 µM (inactive) | 1.95 µM (inactive) | 4.53 µM (inactive) | 0.327 µM (active) | 8.67 µM (inactive) | 6.38 µM (inactive) | 2.7 µM (inactive) | 2.39 µM (inactive) | 7.98 | 4.93 µM (inactive) | 2.06 µM (inactive) | 3.4 µM (inactive)
CN(C)Cc1c(O)ccc2c1c1c(n2C)C(=O)c2ccccc2C1=O | 1.4 µM (inactive) | 18.7 µM (inactive) | 2.67 µM (inactive) | 6.49 µM (inactive) | 4.52 µM (inactive) | 5.31 µM (inactive) | 5.86 µM (inactive) | 2.73 µM (inactive) | 7.21 µM (inactive) | 4.72 µM (inactive) | 3.72 µM (inactive) | 0.544 µM (active) | 11.5 µM (inactive) | 3.2 µM (inactive) | 3.62 µM (inactive) | 5.24 µM (inactive) | 4.49 | 3.9 µM (inactive) | 2.51 µM (inactive) | 3.45 µM (inactive)
CC(C)(C)OC(=O)NCCCCC(N)C(N)=O (stereo not given) | > 100 µM (inactive) | 45.7 µM (inactive) | > 100 µM (inactive) | 78.7 µM (inactive) | > 100 µM (inactive) | > 100 µM (inactive) | > 100 µM (inactive) | > 100 µM (inactive) | > 100 µM (inactive) | > 100 µM (inactive) | > 100 µM (inactive) | > 100 µM (inactive) | > 100 µM (inactive) | > 100 µM (inactive) | > 100 µM (inactive) | > 100 µM (inactive) | > 100 | > 100 µM (inactive) | > 100 µM (inactive) | > 100 µM (inactive)
C[N+](C)(C)c1ncnc2c1ncn2C1CCCO1 (stereo not given) | > 100 µM (inactive) | > 100 µM (inactive) | > 100 µM (inactive) | > 100 µM (inactive) | > 100 µM (inactive) | > 100 µM (inactive) | > 100 µM (inactive) | > 100 µM (inactive) | > 100 µM (inactive) | > 100 µM (inactive) | > 100 µM (inactive) | > 100 µM (inactive) | > 100 µM (inactive) | > 100 µM (inactive) | > 100 µM (inactive) | > 100 µM (inactive) | > 100 | > 100 µM (inactive) | > 100 µM (inactive) | > 100 µM (inactive)
COc1cccc2c(=O)oc(-c3ccc(C(C)(C)C)cc3)nc12 | 41.7 µM (inactive) | 79.3 µM (inactive) | 34.3 µM (inactive) | 28.8 µM (inactive) | 42.2 µM (inactive) | 44 µM (inactive) | 57 µM (inactive) | 54.8 µM (inactive) | > 100 µM (inactive) | 55.2 µM (inactive) | > 100 µM (inactive) | 22.7 µM (inactive) | 44 µM (inactive) | 32.4 µM (inactive) | 96.8 µM (inactive) | > 100 µM (inactive) | 65.5 | > 100 µM (inactive) | 85.1 µM (inactive) | 0.447 µM (active)
Cc1ccc2c(c1)C1(C)OC(C=CC1=O)O2 (stereo not given) | 0.267 µM (active) | 2.9 µM (inactive) | 0.308 µM (active) | 1.32 µM (inactive) | 0.29 µM (active) | 1.77 µM (inactive) | 1.27 µM (inactive) | 0.0681 µM (active) | 0.261 µM (active) | 0.237 µM (active) | 0.341 µM (active) | 0.225 µM (active) | 0.389 µM (active) | 0.736 µM (active) | 0.308 µM (active) | 1.01 µM (active) | 0.265 | 0.499 µM (active) | 3.24 µM (inactive) | 2.84 µM (inactive)
